Laboratory results reported in US4151281A, “Medicinal preparation for the treatment of collagenoses of a rheumatoid nature” (priority 1977, dated 1979).

Assays:
[1] = acute toxicity, single dose by probe into the stomach, albino mice, 3 days observation (Litchfield and Wilcoxson); conditions: mouse, in vivo, po, albino mice 16-17 g, limits in parentheses
Description: The proposed preparation was tested for toxicity in the acute and chronic tests. The acute toxicity of the preparation was determined in tests in albino mice (weighing 16 to 17 g) by introducing (by means of a probe into the stomach) amounts equal to 1,000 to 5,000 mg/kg of the animals body weight. Each dose was tested in five animals. Observation was continued for three days.

[2] = single administration by probe into the stomach to narcotized cats; type: in vivo
Description: After a 1,000 mg/kg dose, these symptoms are more pronounced.

[3] = chronic toxicity test, daily doses for three months, white rats; type: in vivo; conditions: for Index of anti-toxic function of the liver (quantity of isolated benzoic acid): P = 0.05
Description: […] Each dose was investigated in 20 animals (10 males and 10 females). Twenty rats served as controls. Changes in weight were recorded, the general status and behavior were observed, the peripheral blood picture was examined (hemoglobin, erythrocytes, leukocytes, thrombocytes, the leukocytary formula). For determining the functional state of the liver, kidneys, the pancreas, some biochemical indices of the urine (albumin, sugar, bile pigments) and the blood (sugar, cholesterol, bilirubin, urea, alkaline phosphatase, chlorides) were examined, just as the antitoxic function of the liver.
After the end of the tests the animals were slaughtered by decapitation: part of them immediately after the administration of the preparation, part-ten days later.
The internal organs of the slaughtered animals were examined both macro- and microscopically.

normal fibroblasts = test: 48-hour study of effect on cell growth in a culture of normal fibroblasts from healthy donors; type: cell-based; conditions: Fibroblast, 100-gamma per 1 ml of medium, read-out: reduction of the number of cells in the culture
Text: This fact explains to a certain degree the action mechanism of the preparation in cases of systemic scleroderma.

rheumatoid arthritis = test: clinical trial in patients with rheumatoid arthritis; type: in vivo
Description: (§1) The method of treatment consists in oral administration of the proposed preparation in 0.1 to 0.2 g doses in tablet form […], or in the form of a 5% solution for injections with 5 ml doses once a day. The daily dose shall not be over 0.6 g per patient.
The main group (69 persons) consisted of patients with rheumatoid arthritis in the 2nd and 3rd degree of activity.

[4] = system: systemic lupus erythematosus; test: clinical treatment of systemic lupus erythematosus; type: in vivo, patients
Description: as §1
Eight patients were treated for systemic lupus erythematosus.

systemic scleroderma [5] = test: clinical treatment of systemic scleroderma; type: in vivo, patients
Description: as §1
Five patients were treated for systemic scleroderma. […] One of these patients, following a 1.5 year course of treatment, resumed work after a three-year interval caused by the disease.

adrenal cortex = test: corticosteroid concentration in the blood of rheumatoid arthritis or systemic lupus erythematosus patients during clinical trials; type: in vivo; conditions: regularly given
Text: Accordingly, the observed increase of the concentration of corticosteroids in the blood of rheumatoid arthritis or systemic lupus erythematosus patients, regularly given the proposed preparation during clinical trials in the above mentioned doses, testifies to its stimulating effect on the andrenal cortex.

[6] = side effects and action on lasting administration, compared with known remedies for collagenoses; type: in vivo
[7] = cited from earlier work
systemic scleroderma [8] = conditions: known preparations; cited from earlier work
[9] = most of the patients, continued treatment

Compound: Cc1[nH]c(=O)[nH]c(=O)c1S(=O)(=O)Nc1ccc(S(=O)(=O)c2ccc(NS(=O)(=O)c3c(C)[nH]c(=O)[nH]c3=O)cc2)cc1 [preparation, p,p-/2,4-dioxy-6-methyl pyrimidinyl-5-sulfonamino/diphenyl sulfone]
- LD50 at 72 h [1]: 2600 mg/kg
- symptoms ([2]; single 500 mg/kg): unrest is observed (motorial excitation, mewing, salivation and vomiting)
- time after administration at which unrest is observed ([2]; single 500 mg/kg): 10 to 20 min
- condition on the second day after administration ([2]; single 1,000 mg/kg): returned to normal
- symptoms ([2]; single 1,000 mg/kg): these symptoms are more pronounced. There is repeated vomiting and loss of appetite
- visible changes ([2]; single 100 to 200 mg/kg): no visible changes
- Index of anti-toxic function of the liver (quantity of isolated benzoic acid) ([3]; females, after 3 months of 100 mg/kg oral doses (controls 10.1±5.1)): 10.9±2.2
- Index of anti-toxic function of the liver (quantity of isolated benzoic acid) ([3]; males, after 3 months of 100 mg/kg oral doses (controls 6.68±0.33)): 6.5±1.14
- fattiness at post mortem examination ([3]; rat, in vivo): good fattiness
- macro- and microscopic examination of organs ([3]; rat, in vivo): no pathological changes
- weight of thyroid gland, testes, spleen and adrenal glands versus control group ([3]; rat, in vivo): did not differ
- inhibition at 100 µg/mL (normal fibroblasts): 30%
- articular index after treatment, average (rheumatoid arthritis; 61 patients, from 46-48 points): 16-20 points
- gravest patients who became capable of taking care of themselves unaided (rheumatoid arthritis; administration for 1.5 to 2 years, three bed-ridden for 3 to 5 years): Eight
- first compression force after treatment, average (rheumatoid arthritis; all the patients, from 14.4±1.7 kgf): 22.0±2.1 kgf
- corticosteroid content in the blood (rheumatoid arthritis; due to the increasing activity of the 11-oxicorticosteroids): increase
- patients with articular index without change (rheumatoid arthritis; during the period of treatment): 8 patients
- patients with reduced articular index (rheumatoid arthritis; during the period of treatment): 61 patients
- C-reactive protein after treatment (rheumatoid arthritis; from (++++), most of the patients, continued treatment): (++) and even (+)
- patients in whom the pain syndrome disappeared (rheumatoid arthritis; majority of patients, on the 10th to 12th day): 51
- ESR (rheumatoid arthritis; [9]): reduction
- reduction of the sialic acid content of the blood (rheumatoid arthritis; [9]): 0.05 optical density units
- time to beginning of improvement of therapeutic indices (rheumatoid arthritis; not later than, after the beginning of treatment): 3 to 4 weeks
- patients in whom morning-time torpidity disappeared completely (rheumatoid arthritis; of 69 patients): 48 patients
- patients managing on essentially reduced doses of corticosteroids (rheumatoid arthritis; of the eight gravest patients): six
- patients who do not need corticosteroids any more (rheumatoid arthritis; of the eight gravest patients): two
- patients with only an abatement of the pain syndrome (arthralgia) (rheumatoid arthritis; other patients): 18 patients
- period of morning-time torpidity after treatment (rheumatoid arthritis; other patients, shortened from 103.3±14.4 min): 41.4 ± 9.73 min
- patients with abatement of morning-time torpidity and greater scope of joint movement (rheumatoid arthritis; out of the 69 patients): 59 patients
- leukocyte count (rheumatoid arthritis; patients with leukopenias or leukocytoses accompanying rheumatoid arthritis): tendency towards the normalization
- pain syndrome towards the end of the first week of treatment (rheumatoid arthritis; rheumatoid arthritis): tangibly abated
- patients in whom improvement took much longer (rheumatoid arthritis; rheumatoid arthritis): 8 patients
- complete recovery ([4]; of eight patients, intake for two years): one
- effect in the other cases on complications due to corticosteroids and quinoline preparations ([4]; other cases of eight patients): substantially alleviate the complications
- reduction of skin induration, flexion contracture of the hand and sensation of skin tension (systemic scleroderma [5]; five patients): All of them manifested a reduction
- patients who resumed work (systemic scleroderma [5]; of five patients, 1.5 year course, after a three-year interval): One
- concentration of corticosteroids in the blood (adrenal cortex): increase
- function of the adrenal cortex ([6]; as testified by rising corticosteroids content of the blood): stimulates the function of the adrenal cortex
- complications of indole derivatives (ulceration, mental disorders) ([6]; even when used for many years): does not cause such complications
- dosage of prescribed corticosteroids ([6]; in vivo): to be reduced and, in individual cases, discontinuing them altogether
- general and water-and-salt metabolic disorders ([6]; in vivo): does not cause general and water-and-salt metabolic disorders
- toxicity ([6]; in vivo): low toxicity
- complications of antimalarials (leukopenia; acoustic and optic nerves, liver, myocardium) ([6]; lasting administration (1-2 years and more)): does not cause the above-mentioned complications
- pre-existing metabolic disorders ([6]; when present): tend to normalize

Compound: CCN(CC)CCCC(C)Nc1ccnc2cc(Cl)ccc12 (stereo not shown) [Delagil]
- complications of antimalarial preparations ([7]; treatment of collagenoses of a rheumatoid nature): cause leukopenia, and also affect the acoustic and optic nerves, the liver, the myocardium

Compound: COc1ccc2c(c1)c(CC(=O)O)c(C)n2C(=O)c1ccc(Cl)cc1 [Indometacin]
- whether the above results are produced in systemic scleroderma (systemic scleroderma [8]): not produced
- mental disorders ([7]; derivatives of indole): confused consciousness, somnolency
- ulcerogenic effect ([7]; derivatives of indole, ulceration of the stomach, esophagus, the intestine): possess an ulcerogenic effect

Compound: CC(C)Cc1ccc(C(C)C(=O)O)cc1 (stereo not shown) [Brufen]
- whether the above results are produced in systemic scleroderma (systemic scleroderma [8]): not produced
